Test results taken from patent US6887873B2, “Triazine derivatives and their application as antitelomerase agents” (Aventis Pharma S.A., priority 2001, dated 2005).

What was measured:
[1] = system: human telomerease (HL60 cell extract); test: Antitelomerease activity: extension of oligonucleotide TS followed by PCR amplification, with HL60 extract; assay type: biochemical; details: read-out: TRAP IC50
Procedure, shortened: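 HL60 CHAPS-lysate extract extends TS primer (15 min, 30 °C) with compound at 10, 1, 0.1 and 0.01 µM, followed by 30-cycle PCR with TS and CXext. Products resolved on 12% acrylamide and quantified; % inhibition versus enzyme control and blank, IC50 read from semilog plot.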

[2] = system: A549 cells; test: Cytotoxic activity on human tumour line A549, neutral red, 96 hours; assay type: cell-based; details: Homo sapiens, A549, A549; read-out: Cytotox. A549 IC50
Procedure: The cytotoxic biological activity on human tumour lines is determined according to the following experimental protocol:
The human cell lines A549 are obtained from ATCC (American Type Culture Collection, Rockville, USA). The A549 cells are cultured in a layer in a culture flask in RPMI 1640 medium containing L-glutamine at 2 mM, penicillin 200 U/ml, streptomycin 200 μg/ml and supplemented with 10% heat-inactivated foetal calf serum. The KB cells are cultured in a layer in a culture flask in Dulbelco's medium containing L-glutamine at 2 mM, penicillin 200 U/ml, streptomycin 200 μg/ml and supplemented with 10% heat-inactivated foetal calf serum.
The cells at the exponential growth phase are trypsinized, washed in 1×PBS and are inoculated in 96-well microplates (Costar) in an amount of 4×10^4 cells/ml for A549 and of 1.5×10^4 cells/ml (0.2 ml/well) and then incubated for 96 hours in the presence of variable concentrations of product to be studied (10, 1, 0.1 and 0.01 μM, each point in quadruplicate). 16 hours before the end of the incubation, 0.02% final of neutral red is added to each well. At the end of the incubation, the cells are washed with 1×PBS and lysed with 1% sodium lauryl sulphate. The cellular incorporation of the dye, which reflects cellular growth, is evaluated by spectro-photometry at a wavelength of 540 nm for each sample with the aid of a Dynatech MR5000 reading apparatus.
For each compound concentration tested, the results are expressed as percentage of inhibition of cellular growth and calculated from the untreated control and the culture medium free of cells (blank) according to the following formula: (compound value−blank value/cell control value−blank value)×100.
The concentration of compound inducing a 50% inhibition of growth (IC50) is determined with the aid of a semilogarithmic graphical representation of the inhibition values obtained as a function of each of the compound concentrations tested.
A compound is considered to be active as cytotoxic agent if the concentration inhibiting the growth of the tumour cells tested by 50% is in particular less than 10 μM.

[3] = system: G-quadruplex of oligonucleotide GGGTTAGGGTTAGGGTTAGGG (3.5 repeats of the human telomereic motif); test: G-quadruplex stabilizing activity, fluorescence Tm (FAM+DABCYL oligonucleotide); assay type: binding
Procedure, shortened: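 FAM/DABCYL-labelled telomeric oligonucleotide (0.2 μM strand) in 10 mM sodium cacodylate pH 7.6 with 0.1 M LiCl (or NaCl) was annealed, then incubated ≥1 h at 20 °C with compound at 1 μM final. Samples were heated 20→80 °C, with excitation at 470 nm and emission at 515/588 nm. Tm is the 515 nm emission midpoint.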

| Compound | IC50 [1] [nM] | IC50 [2] [nM] | G4 delta Tm [3] [°C] |
| --- | --- | --- | --- |
| Cc1cc(N)c2cc(Nc3nc(Nc4ccc5nc(C)cc(N)c5c4)nc(N4CCN(c5ccc6ccccc6n5)CC4)n3)ccc2n1 [Example 71] | 350 | 12400 |  |
| COc1ccc(CNc2nc(Nc3ccc4nc(C)cc(N)c4c3)nc(Nc3ccc4nc(C)cc(N)c4c3)n2)cc1 [Example 83] | 1200 | 14000 |  |
| Cc1cc(N)c2cc(Nc3nc(NCc4ccc(N(C)C)cc4)nc(Nc4ccc5nc(C)cc(N)c5c4)n3)ccc2n1 [Example 85] | 3900 | 16000 |  |
| Cc1cc(N)c2cc(Nc3nc(Nc4ccc5nc(C)cc(N)c5c4)nc(Nc4ccccn4)n3)ccc2n1 [Example 89] | 1200 | 20000 |  |
| Cc1cc(N)c2cc(Nc3nc(Nc4ccc5nc(C)cc(N)c5c4)nc(Sc4ccccc4)n3)ccc2n1 [Example 117] |  | 19500 |  |
| Cc1cc(N(C)C)c2cc(Nc3nc(Nc4ccc5nc(C)cc(N(C)C)c5c4)nc(-c4ccccc4)n3)ccc2n1 [Example 134, 2,4-bis(4-dimethylamino-2-methylquinolin-6-yl)amino-6-phenyl-[1,3,5]triazine] |  | 880 |  |
| Cc1cc(N)c2cc(Nc3nc(Nc4ccc5nc(C)cc(N)c5c4)nc(N4CCC(O)CC4)n3)ccc2n1 [Example 155] | 390 |  | 14 |
| COC(C)CNc1nc(Nc2ccc3nc(C)cc(N)c3c2)nc(Nc2ccc3nc(C)cc(N)c3c2)n1 (stereo not shown) [Example 156] | 1200 |  | 14.5 |
| Cc1cc(N)c2cc(Nc3nc(NCCO)nc(Nc4ccc5nc(C)cc(N)c5c4)n3)ccc2n1 [Example 158] | 850 |  | 8 |
| COCC1CCCN1c1nc(Nc2ccc3nc(C)cc(N)c3c2)nc(Nc2ccc3nc(C)cc(N)c3c2)n1 (stereo not shown) [Example 159] | 430 |  | 10.5 |
| Cc1cc(N)c2cc(Nc3nc(Nc4ccc5nc(C)cc(N)c5c4)nc(N4CCCC(O)C4)n3)ccc2n1 (stereo not shown) [Example 160] | 360 |  | 10.5 |
| Cc1cc(N(C)C)c2cc(Nc3nc(Nc4ccc5nc(C)cc(N(C)C)c5c4)nc(N(CCO)CCO)n3)ccc2n1 [Example 161] | 1900 |  | 12 |
| Cc1cc(N(C)C)c2cc(Nc3nc(Nc4ccc5nc(C)cc(N(C)C)c5c4)nc(N4CCC(O)C4)n3)ccc2n1 (stereo not shown) [Example 162] | 1700 |  | 17 |
| Cc1cc(N(C)C)c2cc(Nc3nc(Nc4ccc5nc(C)cc(N(C)C)c5c4)nc(N4CCN(CCO)CC4)n3)ccc2n1 [Example 163] | 1200 |  | 13 |
| Cc1cc(N(C)C)c2cc(Nc3nc(Nc4ccc5nc(C)cc(N(C)C)c5c4)nc(N4CCC(O)CC4)n3)ccc2n1 [Example 164] | 1600 |  | 12.5 |
| COC(C)CNc1nc(Nc2ccc3nc(C)cc(N(C)C)c3c2)nc(Nc2ccc3nc(C)cc(N(C)C)c3c2)n1 (stereo not shown) [Example 165] | 1400 |  | 6.5 |
| Cc1cc(N(C)C)c2cc(Nc3nc(NCCO)nc(Nc4ccc5nc(C)cc(N(C)C)c5c4)n3)ccc2n1 [Example 167] | 1100 |  | 6 |
| COCC1CCCN1c1nc(Nc2ccc3nc(C)cc(N(C)C)c3c2)nc(Nc2ccc3nc(C)cc(N(C)C)c3c2)n1 (stereo not shown) [Example 168] | 1100 |  | 16.5 |
| Cc1cc(N(C)C)c2cc(Nc3nc(Nc4ccc5nc(C)cc(N(C)C)c5c4)nc(N4CCCC(O)C4)n3)ccc2n1 (stereo not shown) [Example 169] | 700 |  | 16.5 |
| Cc1cc(N(C)C)c2cc(Nc3nc(Nc4ccc5nc(C)cc(N(C)C)c5c4)nc(NC(CO)CO)n3)ccc2n1 [Example 170] | 1300 |  | 3 |
| Cc1cc(N(C)C)c2cc(Nc3nc(Nc4ccc5nc(C)cc(N(C)C)c5c4)nc(NC(CO)C(=O)O)n3)ccc2n1 (stereo not shown) [Example 171] | 490 |  | 13 |
| Cc1cc(N)c2cc(Nc3nc(Nc4ccc5nc(C)cc(N)c5c4)nc(NC(CO)CO)n3)ccc2n1 [Example 173] | 620 |  | 11.5 |
| Cc1cc(N(C)C)c2cc(Nc3nc(Nc4ccc5nc(C)cc(N(C)C)c5c4)nc(NC(C)CO)n3)ccc2n1 (stereo not shown) [Example 175] | 3000 |  | 3 |
| Cc1cc(N(C)C)c2cc(Nc3nc(NCC(O)CO)nc(Nc4ccc5nc(C)cc(N(C)C)c5c4)n3)ccc2n1 (stereo not shown) [Example 176] | 3000 |  | 6 |
